# Results reported in patent US20150044346A1, “USE OF OXAZOLINES AS AROMA/FLAVOUR PRECURSORS” (NESTEC S.A., priority 2012, published 2015).
# Key:
# [1] = Release of Strecker aldehyde from 3-oxazoline precursor stirred in water at 37° C. (stable isotope dilution, HS-GC-MS / GC-MS); assay type: physicochemical; settings: 5 min after addition of water at 37° C.
# [2] = SPME-GCxGC-TOFMS of 3-methylbutanal in coffee mix spiked with oxazoline; assay type: physicochemical
# Experimental: (§1) Coffee mix powder (16 g) was weighted into a Pyrex bottle. The product was spiked with 2-(2-methylpropyl)-5-methyl-3-oxazoline (10 mg) and the sample was then reconstituted in 130 ml of hot (80° C.) water. Sample without addition of oxazoline was prepared analogously and used as reference. The impact of the addition of the oxazoline on the intensity of malty aroma (characteristic aroma of 3-methylbutanal) was evaluated by a sensory panel as described in example 9. […] To further substantiate the sensory results, the sample was analyzed by SPME-GCxGC-TOFMS.
# The results (Table 7) indicate that the conversion of oxazoline to Strecker aldehyde is very high and reaches 77% in the analysed coffee mix sample (incubation 60° C./15 min).
# [3] = Sensory panel, malty aroma of coffee mix beverage spiked with oxazoline; settings: coffee mix powder 16 g + 10 mg oxazoline, 130 ml hot (80° C.) water; scale −5 to +5, reference at zero
# Experimental: (§2) Cocoa-malt-based beverage (7.5 g) was weighted into a Pyrex bottle. The product was spiked with 2-(2-methylpropyl)-5-methyl-3-oxazoline (10 mg) and the sample was then reconstituted in 100 mL of cold (10° C.) or warm (60° C.) semi-skimmed milk. Samples without addition of oxazoline were prepared analogously and used as references. The impact of the addition of the oxazoline on the intensity of malty aroma (characteristic aroma of 3-methylbutanal) was evaluated by a sensory panel. Comparative profiling procedure was conducted using an 11-point scale ranging from −5 to +5. Assessors were asked to score the sample containing oxazoline against the reference. Reference product containing no added oxazoline was arbitrary positioned on the zero of the scale.
# as §1
# [4] = Sensory panel, malty aroma of cereal based pap spiked with oxazoline; settings: cereal powder 12.5 g + 10 mg oxazoline, scale −5 to +5
# Experimental: as §2
# Cereal powder (12.5 g) was weighted into a plastic dish. The product was spiked with 2-(2-methylpropyl)-5-methyl-3-oxazoline (10 mg) and the sample was then reconstituted in 100 ml of warm (60° C.) water or semi-skimmed milk. Sample without addition of oxazoline was prepared analogously and used as reference. The impact of the addition of the oxazoline on the intensity of malty aroma (characteristic aroma of 3-methylbutanal) was evaluated by a sensory panel as described in example 9.
# [5] = Sensory panel, malty aroma of cocoa-malt-based beverage spiked with oxazoline; settings: cocoa-malt-based beverage 7.5 g + 10 mg oxazoline
# Experimental: as §2
# [6] = Impact of pH value on release of Strecker aldehyde from 3-oxazoline precursor in buffer solution at 37° C.; assay type: physicochemical
# Experimental: (§3) 2-(2-Methylpropyl)-5-methyl-3-oxazoline (dissolved in pentane/diethyl ether; 2 mL) was added to ethanol (0.5 mL). The pentane/diethyl ether was carefully evaporated, and finally made up to 5 mL with ethanol. […] A control experiment was performed with 2-(2-methylpropyl)-5-methyl-3-oxazoline and the respective standard without adding the respective buffer solution. For headspace measurements, the samples were directly subjected to HS-GC-MS. For liquid measurements, the samples were cooled in an ice bath and extracted with diethyl ether (3×15 mL; liquid-liquid extraction). The organic phases were combined, dried over anhydrous sodium sulphate, and the solvent was distilled off (20° C., 500 mbar) to about 4 mL. An aliquot (2 μL) was used for the stable isotope dilution assays ((GC-) GC-MS).
# as §3, with “2-Methylphenyl-5-methyl-3-oxazoline” for “2-(2-Methylpropyl)-5-methyl-3-oxazoline”, “2-methylphenyl-5-methyl-3-oxazoline” for “2-(2-methylpropyl)-5-methyl-3-oxazoline”
smiles,measurement,setting,value
CC(C)CC1N=CC(C)O1 (stereo not drawn) [2-(2-methylpropyl)-5-methyl-3-oxazoline],3-methylbutanal released / precursor converted to Strecker aldehyde,[1],about 75%
same,"Theoretical release from spike, 3-methylbutanal (ug/vial)",[2],244 ug/vial
same,Yield of conversion of oxazoline to Strecker aldehyde,[2]; incubation 60° C./15 min,77%
same,"3-methylbutanal (ug/vial), sample spiked with oxazoline","[2]; incubation 60° C./15 min, non-spiked reference 28",215 ug/vial
same,malty note score against reference,[3],3.5
same,malty note score against reference,[4]; 100 ml warm (60° C.) semi-skimmed milk,1.2
same,malty note score against reference,[4]; 100 ml warm (60° C.) water,1.7
same,malty note score against reference,"[5]; cold (10° C.) semi-skimmed milk, 11-point scale −5 to +5, reference at zero",3.6
same,malty note score against reference,"[5]; warm (60° C.) semi-skimmed milk (hot milk), scale −5 to +5, reference at zero",3.3
same,3-methylbutanal (mol %) generated from precursor,"[6]; pH 5, Control without addition of buffer solution",0.5 mol %
same,3-methylbutanal (mol %) generated from precursor,"[6]; pH 5 buffer, 10 min, 37° C.",95.1 mol %
same,3-methylbutanal (mol %) generated from precursor,"[6]; pH 5 buffer, 60 min, 37° C.",98.9 mol %
same,3-methylbutanal (mol %) generated from precursor,"[6]; pH 7, Control without addition of buffer solution",0.3 mol %
same,3-methylbutanal (mol %) generated from precursor,"[6]; pH 7 buffer, 10 min, 37° C.",54.8 mol %
same,3-methylbutanal (mol %) generated from precursor,"[6]; pH 7 buffer, 60 min, 37° C.",97.9 mol %
same,3-methylbutanal (mol %) generated from precursor,"[6]; pH 9, Control without addition of buffer solution",0.3 mol %
same,3-methylbutanal (mol %) generated from precursor,"[6]; pH 9 buffer, 10 min, 37° C.",9.0 mol %
same,3-methylbutanal (mol %) generated from precursor,"[6]; pH 9 buffer, 60 min, 37° C.",35.7 mol %
